According to publication PMC9516332 (Frontiers in Oncology, 2022):

Tests used:
Experiment in all cases: Kinase panel profiling at 1 µmol/L (MSA or IMAP), percentage inhibition
Assay type in all cases: biochemical
[1] = biological target: panel of 255 wild-type kinases (Homo sapiens, UniProt P53779); settings: kinase JNK3; 1 µmol/L single concentration; read-out: %-inhibition at 1 µmol/L, JNK3
[2] = biological target: panel of 255 wild-type kinases (Homo sapiens, UniProt O14578); settings: kinase CRIK; 1 µmol/L single concentration; read-out: %-inhibition at 1 µmol/L, CRIK
[3] = biological target: panel of 255 wild-type kinases (Homo sapiens, UniProt P09769); settings: kinase FGR; 1 µmol/L single concentration; read-out: %-inhibition at 1 µmol/L, FGR
[4] = biological target: panel of 255 wild-type kinases (Homo sapiens, UniProt P21802); settings: kinase FGFR2; 1 µmol/L single concentration; read-out: %-inhibition at 1 µmol/L, FGFR2
[5] = biological target: panel of 255 wild-type kinases (Homo sapiens, UniProt Q9Y3S1); settings: kinase WNK2; 1 µmol/L single concentration; read-out: %-inhibition at 1 µmol/L, WNK2
[6] = biological target: T1, panel of 255 wild-type kinases (Homo sapiens, UniProt Q9UF33); settings: kinase EPHA6; 1 µmol/L single concentration; read-out: %-inhibition at 1 µmol/L, EPHA6
T1 sequence (Q9UF33 23-1036): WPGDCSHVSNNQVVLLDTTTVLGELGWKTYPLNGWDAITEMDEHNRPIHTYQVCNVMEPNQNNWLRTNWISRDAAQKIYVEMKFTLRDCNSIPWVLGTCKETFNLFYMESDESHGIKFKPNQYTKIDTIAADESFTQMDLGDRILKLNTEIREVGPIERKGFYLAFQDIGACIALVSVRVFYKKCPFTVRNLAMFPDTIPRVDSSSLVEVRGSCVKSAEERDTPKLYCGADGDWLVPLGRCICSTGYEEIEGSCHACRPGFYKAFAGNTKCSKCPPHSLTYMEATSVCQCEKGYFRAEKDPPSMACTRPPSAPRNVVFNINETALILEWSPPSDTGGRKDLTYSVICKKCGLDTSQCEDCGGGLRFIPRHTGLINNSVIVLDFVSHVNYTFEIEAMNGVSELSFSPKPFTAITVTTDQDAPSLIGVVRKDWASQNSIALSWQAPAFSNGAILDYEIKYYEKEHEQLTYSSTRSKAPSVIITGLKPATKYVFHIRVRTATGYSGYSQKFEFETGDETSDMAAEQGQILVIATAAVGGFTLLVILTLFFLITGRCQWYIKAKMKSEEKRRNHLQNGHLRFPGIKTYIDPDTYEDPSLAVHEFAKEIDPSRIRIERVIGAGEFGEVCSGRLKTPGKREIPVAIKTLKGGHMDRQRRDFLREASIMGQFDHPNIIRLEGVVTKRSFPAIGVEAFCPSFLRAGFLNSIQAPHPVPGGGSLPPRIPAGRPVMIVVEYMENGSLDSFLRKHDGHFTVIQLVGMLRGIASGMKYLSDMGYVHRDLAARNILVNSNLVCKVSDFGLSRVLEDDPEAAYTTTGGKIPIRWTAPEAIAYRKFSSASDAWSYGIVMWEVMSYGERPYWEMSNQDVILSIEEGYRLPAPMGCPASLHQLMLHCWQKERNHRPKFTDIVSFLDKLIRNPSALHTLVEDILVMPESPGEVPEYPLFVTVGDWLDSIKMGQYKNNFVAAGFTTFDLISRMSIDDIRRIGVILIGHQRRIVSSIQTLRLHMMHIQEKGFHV

[7] = biological target: panel of 255 wild-type kinases (Homo sapiens, UniProt P29597); settings: kinase TYK2; 1 µmol/L single concentration; read-out: %-inhibition at 1 µmol/L, TYK2
[8] = biological target: panel of 255 wild-type kinases (Homo sapiens, UniProt Q05655); settings: kinase PKCδ; 1 µmol/L single concentration; read-out: %-inhibition at 1 µmol/L, PKCδ
[9] = biological target: panel of 255 wild-type kinases (Homo sapiens, UniProt Q13164); settings: kinase Erk5; 1 µmol/L single concentration; read-out: %-inhibition at 1 µmol/L, Erk5
[10] = biological target: T2, panel of 255 wild-type kinases (Homo sapiens, UniProt O00418); settings: kinase EEF2K; 1 µmol/L single concentration; read-out: %-inhibition at 1 µmol/L, EEF2K
T2 sequence (O00418 1-725): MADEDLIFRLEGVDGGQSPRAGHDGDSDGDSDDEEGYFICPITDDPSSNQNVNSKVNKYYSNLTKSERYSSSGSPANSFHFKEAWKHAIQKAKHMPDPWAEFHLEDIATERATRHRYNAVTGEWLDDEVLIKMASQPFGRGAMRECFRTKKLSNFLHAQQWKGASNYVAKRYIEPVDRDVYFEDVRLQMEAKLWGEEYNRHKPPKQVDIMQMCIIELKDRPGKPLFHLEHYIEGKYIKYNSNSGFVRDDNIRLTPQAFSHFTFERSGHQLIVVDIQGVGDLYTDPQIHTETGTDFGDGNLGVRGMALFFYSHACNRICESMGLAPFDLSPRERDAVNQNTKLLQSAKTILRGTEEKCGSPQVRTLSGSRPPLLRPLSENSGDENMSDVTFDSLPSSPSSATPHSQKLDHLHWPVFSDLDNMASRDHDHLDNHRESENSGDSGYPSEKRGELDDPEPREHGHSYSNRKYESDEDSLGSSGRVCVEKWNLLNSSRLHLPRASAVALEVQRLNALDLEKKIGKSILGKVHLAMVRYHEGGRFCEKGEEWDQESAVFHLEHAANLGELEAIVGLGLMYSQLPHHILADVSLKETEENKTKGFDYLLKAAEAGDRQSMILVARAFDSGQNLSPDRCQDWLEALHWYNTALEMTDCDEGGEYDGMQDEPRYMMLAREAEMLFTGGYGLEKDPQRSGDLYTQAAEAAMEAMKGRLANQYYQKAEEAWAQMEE

Row | inhibition at 1 µM [1] [%] | inhibition at 1 µM [2] [%] | inhibition at 1 µM [3] [%] | inhibition at 1 µM [4] [%] | inhibition at 1 µM [5] [%] | inhibition at 1 µM [6] [%] | inhibition at 1 µM [7] [%] | inhibition at 1 µM [8] [%] | inhibition at 1 µM [9] [%] | inhibition at 1 µM [10] [%] | SMILES
1 | 7 | -3.44 | 0.0227 | 4.56 | -2.48 | 2.34 | -4 | -9 | -0.05 | -6 | Cn1cnc2c(F)c(Nc3ccc(Br)cc3F)c(C(=O)NOCCO)cc21 [binimetinib]
2 | -8.47 | -4.75 | 51 | 100 | -2.37 | 98 | 3.39 | -2 | 4 | -1.54 | COc1ccc(CN2C3CC2CN(c2ccc(-c4cc(OCC(C)(C)O)cn5ncc(C#N)c45)cn2)C3)cn1 [selpercatinib]
3 | -12 | -5.56 | 2 | 7 | -3.36 | 5.35 | -4 | -7.56 | 0.367 | 2 | Cc1nc(NC(=O)N2CCC[C@H]2C(N)=O)sc1-c1ccnc(C(C)(C)C(F)(F)F)c1 [alpelisib]
4 | 1.13 | -2.49 | 6 | 6 | 0.536 | 2.19 | 4.71 | 2.67 | -1.07 | -2.79 | Cc1cc(Nc2ncnc3ccc(NC4=NC(C)(C)CO4)cc23)ccc1Oc1ccn2ncnc2c1 [tucatinib]
5 | 2.14 | -2.33 | -0.332 | 1.1 | -4 | 1 | -3 | -4.35 | 2.36 | 2.4 | Cn1cnc2c(F)c(Nc3ccc(Br)cc3Cl)c(C(=O)NOCCO)cc21 [selumetinib]
6 | 0.338 | 32 | 58 | 16 | -4 | 98 | 6.51 | 9 | 0.172 | 0 | COc1cc2ncnc(Nc3ccc(F)c(Cl)c3)c2cc1NC(=O)/C=C/CN1CCCCC1 [dacomitinib]
7 | 6 | -0.417 | 81 | 98 | -1 | 87 | 91 | -3 | 0.775 | 1.23 | CO[C@]1(C(=O)N[C@@H](C)c2ccc(-n3cc(F)cn3)nc2)CC[C@H](c2nc(C)cc(Nc3cc(C)[nH]n3)n2)CC1 [pralsetinib]

Row | SMILES | inhibition at 1 µM [1] [%] | inhibition at 1 µM [2] [%] | inhibition at 1 µM [3] [%] | inhibition at 1 µM [4] [%] | inhibition at 1 µM [5] [%] | inhibition at 1 µM [6] [%] | inhibition at 1 µM [7] [%] | inhibition at 1 µM [8] [%] | inhibition at 1 µM [9] [%] | inhibition at 1 µM [10] [%]
8 | C[C@H]1Oc2cc(cnc2N)-c2c(nn(C)c2C#N)CN(C)C(=O)c2ccc(F)cc21 [lorlatinib] | -8.55 | -1.22 | 22 | 5.32 | -0.739 | 76 | 5 | 5 | 38 | -1.73
9 | C=CC(=O)N1CCC([C@@H]2CCNc3c(C(N)=O)c(-c4ccc(Oc5ccccc5)cc4)nn32)CC1 [zanubrutinib] | -8 | -2.4 | 37 | 2.54 | 2 | 14 | -2.32 | -6 | 3.76 | 0.514
10 | Cn1cc(-c2cc3c(N4CCN(c5ncc([C@@](C)(N)c6ccc(F)cc6)cn5)CC4)ncnn3c2)cn1 [avapritinib] | 2.14 | -0.548 | 66 | 62 | 0.928 | 7 | 16 | 5 | 1.78 | -1.21
